Data published in US6071945A, “8H-thieno-[2,3-b]pyrrolizin-8-one compounds” (Adir et Compagnie, priority 1998, dated 2000).

Experiments:
L1210 cells = assay: Action on the cell cycle; assay type: cell-based, murine; conditions: 500 nM, 21 hours, 37° C.; control: 20%
Experimental: L1210 cells are incubated for 21 hours at 37° C. in the presence of different concentrations of the products being tested. The cells are then fixed using 70% (v/v) ethanol, washed twice in PBS and incubated for 30 minutes at 20° C. in PBS containing 100 μg/ml of RNase and 50 μg/ml of propidium iodide. The results are expressed as the percentage of cells that have accumulated in the G2+M phase after 21 hours, compared to the control (control: 20%). At a concentration of 500 nM, the compound of Example 8 causes 80-90% of the cells to accumulate in the G2+M phase after 21 hours.

[1] = system: KB-3-1 human epidermoid carcinoma cells; assay: In vitro cytotoxicity (Microculture Tetrazolium Assay), KB-3-1; assay type: cell-based; conditions: 96 h, KB-3-1, 4 days incubation, read-out: IC50, concentration that inhibits the proliferation of the treated cells by 50%
Experimental: (§1) Six cell lines were used:
(§2) 1 human epidermoid carcinoma, KB-3-1 , and the corresponding resistant line, KB-A 1, the multi-drug, resistance of which was produced using adriamycin (ADR),
(§3) The cells are cultured in RPMI 1640 complete culture medium containing 10% fetal calf serum, 2 mM glutamine, 50 units/ml of penicillin, 50 μg/ml of streptomycin and 10 mM Hepes, pH=7.4. The cells are distributed on microtitre plates and exposed to the cytotoxic compounds. The cells are then incubated for 2 days (P388, L1210) or 4 days (A549, KB-A1, KB-3-1, IGROV1). The number of viable cells is then quantified by means of a calorimetric assay, the Microculture Tetrazolium Assay (Cancer Res. 1987, 47, 939-942).
(§4) The results are expressed as IC50, the concentration of cytotoxic agent that inhibits the proliferation of the treated cells by 50%.

[2] = system: P388 murine leukaemia cells; assay: In vitro cytotoxicity (Microculture Tetrazolium Assay), P388; assay type: cell-based; conditions: Mus musculus, 48 h; P388, 2 days incubation; read-out: IC50, concentration that inhibits the proliferation of the treated cells by 50%
Experimental: as §1, §3, §4

[3] = system: IGROV1 human ovarian carcinoma cells; assay: In vitro cytotoxicity (Microculture Tetrazolium Assay), IGROV1; assay type: cell-based; conditions: IGROV-1, 96 h, IGROV1, 4 days incubation, read-out: IC50, concentration that inhibits the proliferation of the treated cells by 50%
Experimental: as §1
1 human ovarian carcinoma, IGROV1.
as §3, §4

IGROV1 ovarian carcinoma = assay: In vivo anti-tumour activity on the IGROV1 ovarian carcinoma; set-up: species or system nude BABL/C mice; conditions: 200 mg/kg, intraperitoneal, once per week on days 4, 11 and 18
Experimental: (§5) The anti-tumour activity is expressed as % T/C: [formula]
IGROV1 tumour cells (10^7 cells) were incubated on day 0 in the peritoneal cavity of nude BABL/C mice (groups of 5 animals). The products were administered by the intraperitoneal route once per week on days 4, 11 and 18. The anti-tumour activity is expressed as % T/C as defined hereinbefore. The compound of Example 8 is active at the 200 mg/kg dose and increases the survival of the treated animals by 60% (T/C=160%).

[4] = system: cells originating from human solid tumours; assay: In vitro cytotoxicity, human solid tumour cells compared with murine leukaemias; assay type: cell-based; conditions: versus P388 and L1210
Experimental: as §1, §3, §4

[5] = system: L1210 murine leukaemia cells; assay: In vitro cytotoxicity (Microculture Tetrazolium Assay), L1210; assay type: cell-based; conditions: Mus musculus, 48 h; L1210, 2 days incubation; read-out: IC50, concentration that inhibits the proliferation of the treated cells by 50%
Experimental: as §1, §3, §4

[6] = system: A549 human non-small-cell lung carcinoma cells; assay: In vitro cytotoxicity (Microculture Tetrazolium Assay), A549; assay type: cell-based; conditions: 96 h, A549, 4 days incubation, read-out: IC50, concentration that inhibits the proliferation of the treated cells by 50%
Experimental: as §1
1 human non-small-cell lung carcinoma, A549,
as §3, §4

[7] = system: KB-A1 multi-drug resistant (adriamycin) human epidermoid carcinoma cells; assay: In vitro cytotoxicity (Microculture Tetrazolium Assay), KB-A1; assay type: cell-based; conditions: 96 h, KB-A1, 4 days incubation, read-out: IC50, concentration that inhibits the proliferation of the treated cells by 50%
Experimental: as §1, §2, §3, §4

P388 leukaemia = assay: In vivo anti-tumour activity on the P388 leukaemia; set-up: species or system female BDF1 mice; conditions: intraperitoneal, once per day for 4 days (D1-4)
Experimental: Line P388 (murine leukaemia) was supplied by the National Cancer Institute (Frederick, U.S.A.). The tumour cells (10^6 cells) were inoculated on day 0 into the peritoneal cavity of female BDF1 mice (Iffa-Credo, France) weighing from 18 to 20 g (groups of 6 animals). The products were administered by the intraperitoneal route once per day for 4 days (D1-4) at the doses indicated.
as §5

Compound: O=C1c2scc(-c3ccc(O)c(O)c3)c2-n2cccc21 [Example 8, 3-(3,4-Dihydroxyphenyl)-8H-thieno[2,3-b]pyrrolizin-8-one]
- percentage of cells that have accumulated in the G2+M phase (L1210 cells): 80-90%
- IC50 [1]: 0.033 µM
- IC50 [2]: 0.356 µM
- IC50 [3]: 0.056 µM
- T/C (IGROV1 ovarian carcinoma): 160%
- increase in survival of the treated animals (IGROV1 ovarian carcinoma): 60%
- effect on cells originating from human solid tumours compared with the two murine leukaemias [4]: more potent effect on the cells originating from human solid tumours than on the two murine leukaemias
- IC50 [5]: 0.222 µM
- IC50 [6]: 0.122 µM
- IC50 [7]: 0.022 µM
- minimal effective dose (P388 leukaemia; Mus musculus, P388, ip, read-out: dose from which the compound is active): ≥ 25 mg/kg
- increase in survival of the treated animals (P388 leukaemia; active from the 25 mg/kg dose): 70%
